# Source: PMC5739799 (Oncotarget, 2017)
# Read-outs that look alike come from different tables or passages of the source.
# Key:
# [1] = system: H129 hepatoma; experiment: Syngenic orthotopic H129 hepatoma mouse model, survival; assay type: in vivo, C3H/HeN mice; conditions: regorafenib 10 mg/kg/day oral, start 4–5 days after implantation, vehicle 27 days
# From the text: C3H/HeN mice aged 10–12 weeks with an average weight of 25 g were used for this model and were obtained from Charles River (Sulzfeld, Germany). Experiments were initiated after an acclimatizing period of at least 8 days. Syngenic murine H129 hepatoma cells (obtained from Dr. V. Schmitz, University of Bonn, Germany) were cultivated in RPMI medium, containing 10% fetal calf serum (FCS) and 5% glutamine. Cells were harvested in a subconfluent state (70–80%), prepared for injection of 5×10^4 cells/20 μL in growth factor-free Matrigel, and transplanted in the left upper liver lobe. Animals with surgical failures were marked and excluded from the experiment. Treatment was initiated 4–5 days after transplantation. One set of mice received regorafenib 10 mg/kg once daily, vehicle solution once daily, or no treatment (n=8 per treatment group). […] Treatments were given orally via gavage. The vehicle solution contained 10% Transcutol, 10% Cremophor, and 80% 0.9% NaCl. Animals were weighed twice a week and monitored daily for behavior and wound healing. […] Due to ascites formation in the peritoneum (a symptom of the disease), body weight was not used as part of the assessment. Animals were dissected to assess the cause of death unless they had died in their cage overnight.
# (§1) In the syngenic orthotopic H129 model, differences in survival times between groups were analyzed for significance using log-rank tests. Analysis of tumor volumes of the HCC-PDX models was performed with log2-transformed values on defined days of measurement based on the assumption of their log-normal distribution. […] All respective statistical test results were derived from a common linear model that allows for individual variances in the different groups. The adjustment for multiple testing was carried out using Šidák correction at a significance level of 0.05. […] Bead-based western data were analyzed (described in [15]) using the MEV 4.8.1 software package. […]
# [2] = system: HCC-PDX model 5; experiment: Patient-derived HCC xenograft model 5, tumor growth; assay type: in vivo, BALB/c nude mice
# Description: (§2) The PDX studies were carried out by WuXi AppTec (Shanghai, China). HCC-PDX models were originally established from surgically resected tumor tissue that was implanted in 6–8-week-old female BALB/c nude mice. Animal studies were performed according to the guidelines approved by the Institutional Animal Care and Use Committee of Wuxi AppTec, which follow the guidance of the Association for the Assessment and Accreditation of Laboratory Animal Care. Animals were routinely monitored for their health status and their body weights. Treatment was suspended and/or doses reduced at body weight losses >10%. Animals were euthanized when the tumor size exceeded 2000 mm^3. Pieces from tumor xenografts (∼30 mm^3) from passages 4–8 (ST1) were implanted subcutaneously at the right flank, and tumors were grown to an average size of about 150–200 mm^3. […] Tumor size was measured twice weekly using caliper measurements. Tumor volume (mm^3) was calculated using the formula 0.5 a × b^2, where a and b are the long and short diameters of the tumor, respectively. TGI was assessed either by calculating the ratio of the mean tumor volumes of treated and control groups or by determination of the RTV, which relates tumor volumes at any given day of treatment to the volume at the first treatment day.
# (§3) In the syngenic orthotopic H129 model, differences in survival times between groups were analyzed for significance using log-rank tests. Analysis of tumor volumes of the HCC-PDX models was performed with log2-transformed values on defined days of measurement based on the assumption of their log-normal distribution. […] All respective statistical test results were derived from a common linear model that allows for individual variances in the different groups. The adjustment for multiple testing was carried out using Šidák correction at a significance level of 0.05. Back transformation of the mean difference of log2-transformed tumor volumes led to the ratios of the compared groups, whereby ratios of 1 reflect no difference in tumor volumes and ratios below or above 1 reflect smaller or larger tumor volumes, respectively, of the respective second group. The analyses of RTV were carried out in a similar fashion without the log2 transformation of values. Bead-based western data were analyzed (described in [15]) using the MEV 4.8.1 software package. A p-value <0.05 was regarded as significant. All statistical analyses were performed with SAS® 9.4 [34].
# [3] = system: HCC-PDX model 10; experiment: Patient-derived HCC xenograft model 10, tumor growth; assay type: in vivo, BALB/c nude mice
# Description: as §2, §3
# [4] = system: HCC-PDX model 20; experiment: Patient-derived HCC xenograft model 20, tumor growth; assay type: in vivo, BALB/c nude mice
# Description: as §2, §3
# [5] = system: HCC-PDX model 61; experiment: Patient-derived HCC xenograft model 61, tumor growth; assay type: in vivo, BALB/c nude mice
# Description: as §2, §3
# [6] = system: HCC-PDX model 101; experiment: Patient-derived HCC xenograft model 101, tumor growth; assay type: in vivo, BALB/c nude mice
# Description: as §2, §3
# [7] = system: HCC-PDX model 141; experiment: Patient-derived HCC xenograft model 141, tumor growth; assay type: in vivo, BALB/c nude mice
# Description: as §2, §3
# [8] = system: HCC-PDX model 159; experiment: Patient-derived HCC xenograft model 159, tumor growth; assay type: in vivo, BALB/c nude mice
# Description: as §2, §3
# [9] = system: HCC-PDX model 189; experiment: Patient-derived HCC xenograft model 189, tumor growth; assay type: in vivo, BALB/c nude mice
# Description: as §2, §3
# [10] = system: 10 patient-derived HCC xenograft (HCC-PDX) models; experiment: Panel of 10 HCC-PDX models, overall response and tolerability; assay type: in vivo, BALB/c nude mice; conditions: 10 HCC-PDX models; regorafenib 10, sorafenib 30 mg/kg/day oral
# Description: as §2, §1
# [11] = Steady-state plasma pharmacokinetics after oral dosing for 5 days; assay type: in vivo, BALB/c nu/nu mice
# Description: Pharmacokinetic studies were performed in 6–8-week-old female BALB/c nu/nu mice (Charles River, Sulzfeld, Germany). […] Parent compounds and metabolites M-2 and M-5 were analyzed in plasma samples using validated bioanalytical liquid chromatography-tandem mass spectrometry (LC-MS/MS) methods according to an experimental protocol described earlier. PK parameters, namely the AUC(0–24)ss and Cmax, were calculated from plasma concentrations using a non-compartmental analysis.
# [12] = day 28, R 10 / S 30 mg/kg/day oral starting dose
# [13] = plasma analyte after oral regorafenib 10 mg/kg/day for 5 days
smiles,measurement,setting,value
CNC(=O)c1cc(Oc2ccc(NC(=O)Nc3ccc(Cl)c(C(F)(F)F)c3)c(F)c2)ccn1 [Regorafenib],"Median survival, days (95% CI)",[1],"36 (31, 38) days"
same,"Median survival, days (95% CI)",[1]; listed as regorafenib,36 days
same,"log TV Ratio, compound vs vehicle (T/C)",[2]; day 28,0.13
same,"log TV Ratio, regorafenib vs sorafenib",[2]; day 28,0.73
same,Mean TV,[2]; [12],80.96 mm^3
same,"log TV Differences of least square-means, compound vs vehicle","[2]; day 28, log2-transformed TV","-29,518"
same,"log TV Differences of least square-means, regorafenib vs sorafenib","[2]; day 28, log2-transformed TV",-0.4634
same,"RTV Differences of least square-means, compound vs vehicle",[2]; day 46,"-60,049"
same,"RTV Differences of least square-means, regorafenib vs sorafenib",[2]; day 46,-0.6001
same,RTV,"[2]; end of study, day 46",1.14
same,"RTV Differences of least square-means, regorafenib vs sorafenib","[3]; RTV analysis day R 40, S 30","-99,327"
same,"log TV Ratio, compound vs vehicle (T/C)",[3]; day 12,0.15
same,"log TV Ratio, regorafenib vs sorafenib",[3]; day 12,0.53
same,Mean TV,"[3]; day 12, R 10 / S 30 mg/kg/day oral",332.11 mm^3
same,"log TV Differences of least square-means, compound vs vehicle","[3]; day 12, log2-transformed TV","-27,077"
same,"log TV Differences of least square-means, regorafenib vs sorafenib","[3]; day 12, log2-transformed TV",-0.9111
same,RTV,"[3]; end of study (RTV analysis day R 40, S 30)",9.15
same,"log TV Ratio, compound vs vehicle (T/C)",[4]; day 21,0.73
same,"log TV Ratio, regorafenib vs sorafenib",[4]; day 21,0.93
same,Mean TV,"[4]; day 21, R 10 / S 30 mg/kg/day oral",742.98 mm^3
same,"log TV Differences of least square-means, compound vs vehicle","[4]; day 21, log2-transformed TV",-0.4621
same,"log TV Differences of least square-means, regorafenib vs sorafenib","[4]; day 21, log2-transformed TV",-0.1048
same,"RTV Differences of least square-means, compound vs vehicle",[4]; day 42,-23.2
same,"RTV Differences of least square-means, regorafenib vs sorafenib",[4]; day 42,-11
same,RTV,"[4]; end of study, day 42",9.46
same,"RTV Differences of least square-means, regorafenib vs sorafenib","[5]; RTV analysis day R 42, S 36",-19.5
same,"log TV Ratio, compound vs vehicle (T/C)",[5]; day 25,0.26
same,"log TV Ratio, regorafenib vs sorafenib",[5]; day 25,0.72
same,Mean TV,"[5]; day 25, R 10 / S 30 mg/kg/day oral",331.96 mm^3
same,"log TV Differences of least square-means, regorafenib vs sorafenib","[5]; day 25, log2-transformed TV",-0.4771
same,RTV,"[5]; end of study (RTV analysis day R 42, S 36)",5.43
same,"log TV Ratio, compound vs vehicle (T/C)",[6]; day 28,0.19
same,"log TV Ratio, regorafenib vs sorafenib",[6]; day 28,0.41
same,Mean TV,[6]; [12],177.21 mm^3
same,RTV,"[6]; end of study, day 42",2.06
same,"log TV Ratio, compound vs vehicle (T/C)",[7]; day 28,0.10
same,"log TV Ratio, regorafenib vs sorafenib",[7]; day 28,0.76
same,Mean TV,[7]; [12],89.74 mm^3
same,"log TV Differences of least square-means, regorafenib vs sorafenib","[7]; day 28, log2-transformed TV",-0.3980
same,RTV,"[7]; end of study, day 42",1.04
same,"log TV Ratio, compound vs vehicle (T/C)",[8]; day 28,0.59
same,"log TV Ratio, regorafenib vs sorafenib",[8]; day 28,0.78
same,Mean TV,[8]; [12],864.43 mm^3
same,"log TV Differences of least square-means, compound vs vehicle","[8]; day 28, log2-transformed TV",-0.7546
same,"log TV Differences of least square-means, regorafenib vs sorafenib","[8]; day 28, log2-transformed TV",-0.3604
same,"RTV Differences of least square-means, regorafenib vs sorafenib",[8]; day 35,-0.6894
same,RTV,"[8]; end of study, day 35",9.04
same,"RTV Differences of least square-means, compound vs vehicle",[9]; day 21,"-31,656"
same,"RTV Differences of least square-means, regorafenib vs sorafenib",[9]; day 21,-0.2628
same,"log TV Ratio, compound vs vehicle (T/C)",[9]; day 21,0.42
same,"log TV Ratio, regorafenib vs sorafenib",[9]; day 21,0.88
same,Mean TV,"[9]; day 21, R 10 / S 30 mg/kg/day oral starting dose",322.88 mm^3
same,"log TV Differences of least square-means, compound vs vehicle","[9]; day 21, log2-transformed TV","-12,395"
same,"log TV Differences of least square-means, regorafenib vs sorafenib","[9]; day 21, log2-transformed TV",-0.1791
same,RTV,"[9]; end of study, day 21",2.39
same,Models with significant tumor growth inhibition,[10],8/10
same,AUC(0–24)ss (percent of total),"[11]; after oral regorafenib 10 mg/kg/day for 5 days, total = molar sum of regorafenib, M-2, M-5",90% of total
same,AUC(0-t),"[11]; female, BALB/c nu/nu, mouse, plasma analyte after oral regorafenib 10 mg/kg/day for 5 days, read-out: AUC(0–24)ss",93100 ng·h/mL
same,Cmax,"[11]; female, BALB/c nu/nu, mouse, plasma analyte after oral regorafenib 10 mg/kg/day for 5 days, read-out: Cmax",10700 ng/mL
same,AUC(0–24)ss,[11]; [13],193 µM·h
same,Cmax,[11]; [13],22.2 µM
same,Cumulated maximum concentration (Cmax),"[11]; regorafenib 10 mg/kg once daily for 5 days, parent plus metabolites",24.5 µM
